According to patent US8455196B2, “Biomarker for identifying subgroup of early-stage lung adenocarcinoma patients” (priority 2011, dated 2013):

Tests used:
phospho-H2AX (γ-H2AX) = assay: Immunoblot of cisplatin-induced H2AX phosphorylation; assay type: cell-based, human; conditions: cisplatin 35 μM; for cisplatin-induced γ-H2AX after TOPK shRNA: A549-Luc cells stably transfected with shRNA
Text: Cells were harvested for detecting the expression of phospho-H2AX (γ-H2AX), H2AX and TOPK by immunoblotting.
Platinum-based combination chemotherapy (i.e. cisplatin) is recognized as the first-line standard of care in NSCLC. […]

pAKT = assay: Immunoblot of EGF-induced AKT phosphorylation in A549-Luc cells; assay type: cell-based, human; conditions: A549-Luc stably transfected with shRNA; serum deprived 24 hrs; EGF 20 ng/ml, 0-30 min
Method: FIG. 15 provides the results of knockdown of TOPK decreasing EGF-induced AKT phosphorylation in A549-Luc cells. shNC, shTOPK-3 (SEQ ID NO: 3), and shTOPK-4 (SEQ ID NO: 4) stably transfected A549-Luc cells were serum deprived for 24 hrs. EGF (20 ng/ml) was added to stimulate cells for 0˜30 min as indicated. Then, cells were harvested for detecting the expression of pAKT, AKT and TOPK by immunoblotting.
(§1) Different lung cancer cell lines have been previously analyzed for the expression level of TOPK (data not shown). […] Recently, we have tested the knockdown effect of TOPK in promoting cisplatin-induced cytotoxicity in other lung cancer cells, such as CL152 and CL141 cells.

PTEN = assay: Immunoblot of PTEN in TOPK-transfected CL1-0 cells treated with inhibitor; assay type: cell-based, human; conditions: LY294002 10 μM
Method: CL1-0 (C, left), H1299 (C, right), and IMR90 (D) cells were transiently transfected with a vector control or pCMV2-Flag-TOPK (WT) or pCMV2-Flag-TOPK (KD) plasmid; twenty-two hours after transfection, a fraction of the cells was harvested for immunoblotting as indicated in (B); the migration and cell viability of TOPK-overexpressing IMR90 cells was also evaluated as described previously (D, right panel) (*P<0.05, **P<0.01, ***P<0.001);
To determine whether TOPK mediated AKT-dependent cell mortility by regulating the PTEN protein level, we first examined whether co-treating cells with LY294002, a PI3K inhibitor, could affect the TOPK-induced decrease in PTEN. […] Moreover, when PTEN was ectopically expressed, TOPK-induced phosphorylation of AKT-Ser^473 was blocked in a dose-dependent manner (FIG. 5A).

CL1-0 cells = assay: Transwell migration of TOPK-overexpressing CL1-0 cells with pharmacological inhibitors; assay type: cell-based, human; conditions: CL1-0 cells transfected with pCMV2-Flag-TOPK; inhibitor 10 μM, 2 hrs
Method: All cell culture related reagents were purchased from Invitrogen. […] All cells were cultured in appropriate medium, e.g., RPMI 1640 for A549, CL1-0 and CL1-5; DMEM for IMR90, H1299 and H23. Each medium were supplemented with 10% fetal bovine serum, 2 mM of L-glutamine and 1% penicillin/streptomycin. Transfection of cells was done using lipofetamine (Invitrogen) according to the manufacturer's instructions. […] At 24 or 48 hr post-transfection, cells were harvested and subjected to a migration or proliferation assay and the protein level of TOPK was determined by western blotting as described previously (Chen et al 2009a). Pharmacological inhibitors used (LY294002, U0126, and SB203580) were from Cell Signaling.

CL152 cells = assay: MTT cell viability after cisplatin in siRNA-transfected CL152 cells; assay type: cell-based; conditions: cisplatin 35 μM, 48 hr
Method: After 48 hr, MTT assays were performed to examine the cell viability (n=3, ** P<0.01).
as §1

[1] = human, in vivo; cited from earlier work

Compound: shTOPK-4: shRNA having a sequence as set forth in SEQ ID NO:4 (TGTGGGAAATGATGACTTTAT; shRNA, further chemistry not given here)
- cisplatin-induced γ-H2AX after TOPK shRNA (phospho-H2AX (γ-H2AX)): significantly decreasing
- EGF-induced AKT phosphorylation (pAKT): decreasing

Compound: shTOPK-3: shRNA having a sequence as set forth in SEQ ID NO:3 (TGACCCTGAGGCTTGTTACAT; shRNA, further chemistry not given here)
- cisplatin-induced γ-H2AX after TOPK shRNA (phospho-H2AX (γ-H2AX)): significantly decreasing
- EGF-induced AKT phosphorylation (pAKT): decreasing

Compound: O=c1cc(N2CCOCC2)oc2c(-c3ccccc3)cccc12 [LY294002]
- TOPK-induced reduction of PTEN (PTEN): no effect

Compound: C[S+]([O-])c1ccc(-c2nc(-c3ccncc3)c(-c3ccc(F)cc3)[nH]2)cc1 (stereo not shown) [SB203580]
- increase in cell migration stimulated by ectopic expression of TOPK (CL1-0 cells): inhibited to a smaller extent

Compound: N.N.[Cl][Pt][Cl] [cisplatin]
- cell death induced by cisplatin (CL152 cells): ~90%
- time of peak of cisplatin-induced γ-H2AX (phospho-H2AX (γ-H2AX); A549 control cells): 12 h
- concentration found in the serum of cisplatin-treated patients [1]: 35 µM

Compound: N#CC(=C(/N)Sc1ccccc1N)/C(C#N)=C(\N)Sc1ccccc1N [U0126]
- increase in cell migration stimulated by ectopic expression of TOPK (CL1-0 cells): inhibited to a smaller extent
